Data taken from patent US9296691B2, “Inhibitors of p75 receptor and their uses” (Horacio Uri Saragovi, priority 2010, dated 2016).

What was measured:
anti-NGF mAb NGF30 = experiment: Competitive ELISA, anti-NGF mAb NGF30 binding to immobilized NGF (selectivity control)
Method: The effect of compounds I-B and LM-24 on the binding between NGF and p75 was tested in competitive ELISA assays, where the antagonists prevent soluble p75 from binding to immobilized NGF. The selectivity of antagonism was evaluated by lack of effect upon NGF-TrkA or lack of effect between NGF and anti-NGF monoclonal antibody (mAb) NGF30 interactions (FIG. 1A).
Competitive ELISAs were performed as described (Saragovi et al., 1998). The procedure immobilized 50 ng/well NGF, or pro-NGF (Alomone Labs, Israel) onto polystyrene 96-well microtest plates, with washing and blocking with binding buffer (BB; phosphate buffered saline containing 0.5% bovine serum albumin). The following primary reagents in BB were added: recombinant chimeric p75-Fc or recombinant chimeric TrkA-Fc (R&D), or anti-NGF mAb NGF30 (Saragovi et al., 1998); each at 50 nM. The competitors I-B and the other test compounds (or control LM-24) were added at the indicated concentrations, and the plates were incubated for 45 minutes. After washing 3× in BB, HRP-conjugated secondary reagents (Sigma) were added for 30 min (goat anti-human Fc for p75-Fc and for TrkA-Fc; and goat anti-rat Ab for NGF30 mAb), and then wells were washed 3× in BB and 1× in PBS. Peroxidase activity was determined colorimetrically using the substrate TMB One Solution (Promega). The reaction was stopped with 0.5 N H2SO4 and the plates were read at 450 nm (Benchmark Plus, Bio-Rad). Assays were repeated n>4 times, with replicates of 4 wells each assay. […] Wells with no NGF immobilized but with all other reagents added were treated as background (<15% of maximal signals) and standardized to 0% binding.

[1] = test system: retinal ganglion cells (RGCs); experiment: Glaucoma (episcleral vein cauterization) model, quantification of surviving RGCs; assay type: in vivo; settings: rat glaucoma, intravitreal injections days 14 and 21, endpoint day 42; contralateral normal eye = 100%; control glaucoma 74-77%
Method: Wistar rats (female, 250-300 g; Charles River) were kept in a 12 hours dark-light cycle with food and water ad libitum. All animal manipulations were performed between 9 AM and 12 AM. Deep anesthesia was used during cauterization (induction of glaucoma), ON transection, fluorogold labeling, intraocular injection procedures, Optical Coherence Tomography measurements, and euthanasia (ketamine, xylazine, acepromazine injected intraperitoneally: 50/5/1 mg/kg, as per IACUC recommendations). For measuring IOP, light anesthesia was used (a gas mixture of Oxygen, 2% isofluorane mixture, at a rate of 2.5 liter/min, as per IACUC recommendations).
The episcleral vein cauterization (EVC) model of rat (Shi et al., 2007; Shi et al., 2008) was used. […]
For studies in the glaucoma animal model the injections were performed at days 14 and 21 after cauterization. […] Thus, in this paradigm there is pre-existing damage for 14 days before treatment (measured at ˜8% RGC death (Shi et al., 2007; Shi et al., 2008)); and the treatments require long-lived efficacy in the constant presence of retinal stress due to high IOP. […]
Quantification of labeled RGCs was performed as reported (Shi et al., 2007; Shi et al., 2008). […] Pictures for each freshly flat-mounted retina were taken using a Zeiss fluorescence microscope (Carl Zeiss Meditec, Jena, Germany), with 12 pictures/retina at 20× magnification. […]

TNF-α = experiment: Glaucoma model, retinal TNF-α by western blot; assay type: in vivo, rat; settings: intravitreal injection at glaucoma day 14, measured 3 and 5 days later
Method: After 14-days of glaucoma eyes were injected intravitreally with p75NTR antagonists, and the levels of TNF-α and α2M were measured three days later (e.g. day 17 of glaucoma) and five days later (e.g. day 19 of glaucoma) (FIG. 3A).
Both retinas of each animal were detergent solubilized, and studied in independent gels standardized to loading control. The ratio of the glaucoma eye ±treatment versus the normal contralateral eye was calculated, and results were averaged ±sem, n=3 animals per group. In glaucoma, all drug treatments were done at day 14 of hypertension. In one group the retinas were harvested at day 17 of glaucoma (3 days after intraocular injection) and in the other group the retinas were harvested at day 19 of glaucoma (5 days after intraocular injection). Normal eyes treated with NGF-A were collected in the indicated days. After SDS-PAGE and western transfer, membranes were immunoblotted with rabbit polyclonal antibodies against TNF-α (Preprotech) or α2M (Santa Cruz) at a 1:3000 dilution. Goat anti-rabbit secondary antibodies conjugated to horseradish peroxidase (Sigma) were used at a 1:10,000 dilution. Loading was controlled with antibodies to β-actin (Sigma). For digital quantification, membranes were scanned and analyzed using ImageJ software.

Compound: CC(C)NC(=O)N(C(=O)Cn1cnc2c1c(=O)n(C)c(=O)n2C)C(C)C [I-B, 1,3-Diisopropyl-1-[2-(1,3-dimethyl-2,6-dioxo-1,2,3,6-tetrahydro-purin-7-yl)-acetyl]-urea]
- NGF30 binding AVERAGE (anti-NGF mAb NGF30; binding to immobilized NGF, no cpd = 100%, mAb NGF30 50 nM, as described for FIG. 1A): 88%
- effect on mAb NGF30 binding to NGF (anti-NGF mAb NGF30; competitive ELISA, FIG. 1A, compound at 30 μM): did not interfere
- RGCs surviving [1]: 92%
- TNF-α level in glaucomatous retina, fold-change versus normal retina (TNF-α): time-dependent inhibition
